Results reported in patent publication US9951097B2, “Antibacterial compounds targeting isoprenoid biosynthesis” (priority 2012, dated 2018).
≈ marks a conversion by molar mass, not a printed value. Entries after “also recorded” stand apart in the source; their conditions may differ. Like-named read-outs stand apart in the source and are kept apart here.

Experiments:
[1] = system: Mycobacterium tuberculosis
[2] = system: synthetic DNA dodecamer duplex d(CGCGAATTCGCG)2; assay: DNA binding by differential scanning calorimetry (DSC)
E. coli = E. coli cell growth inhibition; format: cell-based; details: for MIC90: Escherichia coli
Experimental: (§1) Methods. EcUPPS and SaUPPS were expressed and purified as described previously (Durrant et al., Chem Biol Drug Des 2011, 78(3):323-332). UPPS inhibition assays were carried out as described previously, and UPPS/inhibitor crystals were obtained via soaking as described previously (Guo et al., Proc Natl Acad Sci USA 2007, 104(24):10022-10027). Structure determinations and refinements were carried out as described below in Example 3. For the eleven structures reported, the resolution was on average 1.88 Å (±0.29 Å) and Rfree was on average 24.6% (±3.9%). Full synthesis and characterization details for all compounds investigated crystallographically are provided in Example 1 above. In vivo experiments used female BALB/c mice infected intraperitoneally with S. aureus (USA200), as described in detail in Example 3 below. Bacterial cell growth inhibition assays were carried out as described previously (Zhang et al., ACS Med Chem Lett 2012, 3(5):402-406).
(§2) Cell growth inhibition. The growth of S. aureus (USA300 strain) and determination of MIC values were as described previously (Molohon et al., ACS chemical biology 2011, 6(12):1307-1313). E. coli growth and construction of isobolograms were also carried out basically as described previously (Leon et al., J Med Chem 2006, 49(25):7331-7341).

S. aureus UPPS = molecular target: T1, S. aureus UPPS (Staphylococcus aureus, UniProt P60477); assay: biochemical
T1 construct: His-tag (pET-32 Xa/LIC vector tag) (N, cleaved yes); made in house; host or cells: E. coli BL21 (DE3)
T1 sequence (P60477 1-256): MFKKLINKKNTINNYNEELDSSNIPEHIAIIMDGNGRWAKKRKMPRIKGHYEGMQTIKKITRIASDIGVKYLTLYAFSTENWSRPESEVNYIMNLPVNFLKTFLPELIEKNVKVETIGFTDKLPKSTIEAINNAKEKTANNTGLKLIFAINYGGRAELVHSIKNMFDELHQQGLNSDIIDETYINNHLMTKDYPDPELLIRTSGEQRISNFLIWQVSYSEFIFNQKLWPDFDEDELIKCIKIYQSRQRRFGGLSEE
Experimental: as §1, with “For the eleven structures reported, the resolution was on average 1.88 Å (±0.29 Å) and Rfree was on average 24.6% (±3.9%).” left out
(§3) UPPS Inhibition Assays. E. coli UPPS and S. aureus UPPS inhibition assays were carried out as described previously (Durrant et al., Chem Biol Drug Des 2011, 78(3):323-332). […] The IC50 values were obtained by fitting the inhibition data to a standard rectangular hyperbolic dose-response function in GraphPad PRISM 4.0 software (Graphpad Software, San Diego, Calif.). […] IPP and 0.01% Triton X-100.

E. coli UPPS = molecular target: T2, E. coli UPPS (Escherichia coli, UniProt P60472); assay: E. coli UPPS inhibition assay; format: biochemical
T2 construct: His-tag (cleaved yes); made in house; host or cells: E. coli BL21 (DE3)
Experimental: as §1, with “For the eleven structures reported, the resolution was on average 1.88 Å (±0.29 Å) and Rfree was on average 24.6% (±3.9%).” left out
as §3

[3] = system: S. aureus (USA300 strain); assay: S. aureus cell growth inhibition; format: cell-based; details: USA300, MRSA strain; for MIC90: Staphylococcus aureus
Experimental: as §1, §2

[4] = system: S. aureus USA200 Sanger 252 (MRSA) strain
UPPS = UPPS inhibition, enzyme species not given; format: biochemical
Experimental: as §1, with “For the eleven structures reported, the resolution was on average 1.88 Å (±0.29 Å) and Rfree was on average 24.6% (±3.9%).” left out
as §3

T2 sequence (P60472 whole entry): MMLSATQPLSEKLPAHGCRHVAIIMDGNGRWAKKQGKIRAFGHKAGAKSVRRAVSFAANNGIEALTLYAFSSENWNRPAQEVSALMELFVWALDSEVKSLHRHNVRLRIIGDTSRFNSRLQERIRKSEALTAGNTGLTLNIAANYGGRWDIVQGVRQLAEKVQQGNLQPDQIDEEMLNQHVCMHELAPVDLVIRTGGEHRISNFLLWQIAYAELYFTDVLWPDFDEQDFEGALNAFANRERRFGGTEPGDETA

Structure (SMILES)	IC50 (S. aureus UPPS)	MIC90 (E. coli)	IC50 (E. coli UPPS)	MIC90 [3]	other results
O=C(Nc1cccc(C2=NCCCN2)c1)c1ccc(-c2ccc(C(=O)Nc3cccc(C4=NCCCN4)c3)cc2)cc1 [BPH-1503]					concentration inhibiting Mycobacterium tuberculosis [1]: 1 µM; DNA binding (in words) [2]: binds to DNA; also recorded: strong DNA binding; shift in Tmax of DNA melting (DSC) ([2]; 1 mM DNA duplex, 1 mM compound): ~10 °C
O=P(O)(O)C(O)(Cc1cccc(-c2cccc3c2oc2ccccc23)c1)P(=O)(O)O [Compound 5, reference compound]	350 nM				E. coli MIC90 (E. coli): >32 µg/mL; IC50 (E. coli UPPS; read-out: E. coli UPPS IC50): 280 nM; S. aureus MIC90 [3]: >32 µg/mL
CCCCCCCCCCCCOc1cccc(O)c1C(=O)O [Compound 11, (Dodecyloxy)-6-hydroxybenzoic acid]	1700 nM	> 32 µg/mL	2200 nM		
CCCCCCCCCCOc1cccc(C(=O)Nc2ccc([N+](=O)[O-])cc2C(=O)O)c1 [Compound 12, 2-(3-(Decyloxy)benzamido)-5-nitrobenzoic acid]	490 nM	> 32 µg/mL	3000 nM	> 32 µg/mL	
CCCCCCCCOc1cccc(COc2ccc(Br)cc2P(=O)(O)O)c1 [Compound 13, (5-bromo-2-((3-(octyloxy)benzyl)oxy)phenyl)phosphonic acid]	2500 nM	> 32 µg/mL	920 nM	32 µg/mL (≈ 67.9 µM)	
O=C(Nc1cccc(C2=NCCN2)c1)c1ccc(C(=O)Nc2cccc(C3=NCCN3)c2)c([N+](=O)[O-])c1 [Compound 16, N^1, N^4-bis(3-(4,5-dihydro-1H-imidazol-2-yl)phenyl)-2-nitroterephthalamide]	4900 nM	8 µg/mL (≈ 16.1 µM)	4800 nM	> 32 µg/mL	
O=C(Nc1cccc(C2=NCCN2)c1)c1ccc(-c2ccc(C(=O)Nc3cccc(C4=NCCN4)c3)cc2)cc1 [Compound 17, N^4, N^4′-bis(3-(4,5-dihydro-1H-imidazol-2-yl)phenyl)-[1,1′-biphenyl]-4,4′-dicarboxamide]		4 µg/mL (≈ 7.57 µM)		0.25 µg/mL (≈ 0.473 µM)	concentration inhibiting Mycobacterium tuberculosis [1]: 0.4 to 0.5 µM; adverse reactions in treated mice ([4]; 10 mg/kg intraperitoneally once daily, 3 doses): no apparent adverse reactions; mice survived ([4]; 10 mg/kg intraperitoneally once daily, 3 doses, pooled results of 2 experiments): 20/20; activity in mouse model of infection (in words) ([4]; 10 mg/kg once daily, 3 doses total): clear therapeutic activity; also recorded: No mice in the group treated once daily with 10 mg/kg of 17 (3 doses total) died during either experiment; IC50 (UPPS; read-out: UPPS IC50): 100 nM; IC50 (UPPS; read-out: UPPS inhibition): ~100 nM
NCCc1cc(Br)cc(C#Cc2cccc(C#Cc3cc(Br)cc(CCN)c3)c2)c1 [Compound 18, 2,2′-((1,3-phenylenebis(ethyne-2,1-diyl))bis(3-bromo-5,1-phenylene))diethanamine]	1400 nM	8 µg/mL (≈ 15.3 µM)		> 32 µg/mL	IC50 (E. coli UPPS; read-out: E. coli UPPS IC50): 6100 nM
